Counter-ions that a name gives are not always drawn.
Target: AMPK
Test: AMPK activation, enzyme-linked immunosorbent assay
Format: biochemical
Conditions: compounds of Table 1 (Table 6)

SMILES | EC50 | EC50 (formate salt)
CC(C)(C)OC(=O)N1CCC(NC(=O)c2cc3ccc(OC4CCN(c5ccc(C(F)(F)F)cc5)CC4)cc3o2)CC1 [1-82, tert-butyl 4-(6-(1-(4-(trifluoromethyl)phenyl)piperidin-4-yloxy)benzofuran-2-carboxamido)piperidine-1-carboxylate] | 100 to 500 nM | –
O=C(NC1CCNCC1)c1cc2ccc(OC3CCN(c4ccc(OC(F)(F)F)cc4)CC3)cc2o1 [1-83, N-(piperidin-4-yl)-6-(1-(4-(trifluoromethoxy)phenyl)piperidin-4-yloxy)benzofuran-2-carboxamide] | 100 to 500 nM | –
O=C(NC1CCNCC1)c1cc2ccc(OC3CCN(c4ccc(C(F)(F)F)cc4)CC3)cc2o1 [1-84, N-(piperidin-4-yl)-6-(1-(4-(trifluoromethyl)phenyl)piperidin-4-yloxy)benzofuran-2-carboxamide] | 5000 to 10000 nM | –
CC(C)(C)OC(=O)N1CCC(NC(=O)c2cc3cc(OC4CCN(c5ccc(C(F)(F)F)cc5)CC4)ccc3o2)CC1 [1-85, tert-butyl 4-(5-(1-(4-(trifluoromethyl)phenyl)piperidin-4-yloxy)benzofuran-2-carboxamido)piperidine-1-carboxylate] | 500 to 1000 nM | –
O=C(NC1CCNCC1)c1cc2cc(OC3CCN(c4ccc(C(F)(F)F)cc4)CC3)ccc2o1 [1-86, N-(piperidin-4-yl)-5-(1-(4-(trifluoromethyl)phenyl)piperidin-4-yloxy)benzofuran-2-carboxamide] | > 10000 nM | –
O=C(NC1CCN(Cc2ccncc2)CC1)c1cc2ccc(OC3CCN(c4ccc(C(F)(F)F)cc4)CC3)cc2o1 [1-87, N-(1-(pyridin-4-ylmethyl)piperidin-4-yl)-6-(1-(4-(trifluoromethyl)phenyl)piperidin-4-yloxy)benzofuran-2-carboxamide] | < 100 nM | –
O=C(NC1CCN(Cc2ccncc2)CC1)c1cc2ccc(OC3CCN(c4ccc(OC(F)(F)F)cc4)CC3)cc2o1 [1-88, N-(1-(pyridin-4-ylmethyl)piperidin-4-yl)-6-(1-(4-(trifluoromethoxy)phenyl)piperidin-4-yloxy)benzofuran-2-carboxamide] | < 100 nM | –
N#Cc1ccc(CN2CCC(NC(=O)c3cc4ccc(OC5CCN(c6ccc(OC(F)(F)F)cc6)CC5)cc4o3)CC2)cc1 [1-89, N-(1-(4-cyanobenzyl)piperidin-4-yl)-6-(1-(4-(trifluoromethoxy)phenyl)piperidin-4-yloxy)benzofuran-2-carboxamide] | < 100 nM | –
N#Cc1ccc(CN2CCC(NC(=O)c3cc4ccc(OC5CCN(c6ccc(C(F)(F)F)cc6)CC5)cc4o3)CC2)cc1 [1-90, N-(1-(4-cyanobenzyl)piperidin-4-yl)-6-(1-(4-(trifluoromethyl)phenyl)piperidin-4-yloxy)benzofuran-2-carboxamide] | < 100 nM | –
O=C(NC1CCN(Cc2ccc(F)cc2)CC1)c1cc2ccc(OC3CCN(c4ccc(C(F)(F)F)cc4)CC3)cc2o1 [1-91, N-(1-(4-fluorobenzyl)piperidin-4-yl)-6-(1-(4-(trifluoromethyl)phenyl)piperidin-4-yloxy)benzofuran-2-carboxamide] | > 10000 nM | –
O=C(NC1CCN(Cc2ccccn2)CC1)c1cc2ccc(OC3CCN(c4ccc(OC(F)(F)F)cc4)CC3)cc2o1 [1-92, N-(1-(pyridin-2-ylmethyl)piperidin-4-yl)-6-(1-(4-(trifluoromethoxy)phenyl)piperidin-4-yloxy)benzofuran-2-carboxamide] | 500 to 1000 nM | –
O=C(NC1CCN(Cc2ccccn2)CC1)c1cc2ccc(OC3CCN(c4ccc(C(F)(F)F)cc4)CC3)cc2o1 [1-93, N-(1-(pyridin-2-ylmethyl)piperidin-4-yl)-6-(1-(4-(trifluoromethyl)phenyl)piperidin-4-yloxy)benzofuran-2-carboxamide] | 100 to 500 nM | –
O=C(NC1CCN(Cc2ccc(F)cc2)CC1)c1cc2ccc(OC3CCN(c4ccc(OC(F)(F)F)cc4)CC3)cc2o1 [1-94, N-(1-(4-fluorobenzyl)piperidin-4-yl)-6-(1-(4-(trifluoromethoxy)phenyl)piperidin-4-yloxy)benzofuran-2-carboxamide] | < 100 nM | –
O=C(NC1CCN(Cc2cccnc2)CC1)c1cc2ccc(OC3CCN(c4ccc(OC(F)(F)F)cc4)CC3)cc2o1 [1-95, N-(1-(pyridin-3-ylmethyl)piperidin-4-yl)-6-(1-(4-(trifluoromethoxy)phenyl)piperidin-4-yloxy)benzofuran-2-carboxamide] | < 100 nM | –
O=C(NC1CCN(Cc2cccnc2)CC1)c1cc2ccc(OC3CCN(c4ccc(C(F)(F)F)cc4)CC3)cc2o1 [1-96, N-(1-(pyridin-3-ylmethyl)piperidin-4-yl)-6-(1-(4-(trifluoromethyl)phenyl)piperidin-4-yloxy)benzofuran-2-carboxamide] | < 100 nM | –
N#Cc1ccccc1CN1CCC(NC(=O)c2cc3ccc(OC4CCN(c5ccc(OC(F)(F)F)cc5)CC4)cc3o2)CC1 [1-97, N-(1-(2-cyanobenzyl)piperidin-4-yl)-6-(1-(4-(trifluoromethoxy)phenyl)piperidin-4-yloxy)benzofuran-2-carboxamide] | < 100 nM | –

SMILES | EC50 | EC50 (formate salt)
N#Cc1ccccc1CN1CCC(NC(=O)c2cc3ccc(OC4CCN(c5ccc(C(F)(F)F)cc5)CC4)cc3o2)CC1 [1-98, N-(1-(2-cyanobenzyl)piperidin-4-yl)-6-(1-(4-(trifluoromethyl)phenyl)piperidin-4-yloxy)benzofuran-2-carboxamide] | < 100 nM | –
O=C(NC1CCN(Cc2ccc(C(F)(F)F)cc2)CC1)c1cc2ccc(OC3CCN(c4ccc(C(F)(F)F)cc4)CC3)cc2o1 [1-99, N-(1-(4-(trifluoromethyl)benzyl)piperidin-4-yl)-6-(1-(4-(trifluoromethyl)phenyl)piperidin-4-yloxy)benzofuran-2-carboxamide] | < 100 nM | –
O=C(NC1CCN(Cc2ccc(C(F)(F)F)cc2)CC1)c1cc2cc(OC3CCN(c4ccc(C(F)(F)F)cc4)CC3)ccc2o1 [1-100, N-(1-(4-(trifluoromethyl)benzyl)piperidin-4-yl)-5-(1-(4-(trifluoromethyl)phenyl)piperidin-4-yloxy)benzofuran-2-carboxamide] | < 100 nM | –
O=C(NC1CCN(Cc2cccnc2)CC1)c1cc2cc(OC3CCN(c4ccc(C(F)(F)F)cc4)CC3)ccc2o1 [1-101, N-(1-(pyridin-3-ylmethyl)piperidin-4-yl)-5-(1-(4-(trifluoromethyl)phenyl)piperidin-4-yloxy)benzofuran-2-carboxamide] | < 100 nM | –
CN(C(=O)c1cc2cc(OC3CCN(c4ccc(C(F)(F)F)cc4)CC3)ccc2o1)C1CCN(C(=O)OC(C)(C)C)CC1 [1-102, tert-butyl 4-(N-methyl-5-(1-(4-(trifluoromethyl)phenyl)piperidin-4-yloxy)benzofuran-2-carboxamido)piperidine-1-carboxylate] | 1000 to 5000 nM | –
CN(C(=O)c1cc2cc(OC3CCN(c4ccc(C(F)(F)F)cc4)CC3)ccc2o1)C1CCNCC1 [1-103, N-methyl-N-(piperidin-4-yl)-5-(1-(4-(trifluoromethyl)phenyl)piperidin-4-yloxy)benzofuran-2-carboxamide] | 1000 to 5000 nM | –
CN(C(=O)c1cc2cc(OC3CCN(c4ccc(C(F)(F)F)cc4)CC3)ccc2o1)C1CCN(Cc2ccncc2)CC1 [1-104, N-methyl-N-(1-(pyridin-4-ylmethyl)piperidin-4-yl)-5-(1-(4-(trifluoromethyl)phenyl)piperidin-4-yloxy)benzofuran-2-carboxamide] | 100 to 500 nM | –
O=C(NC1CCN(Cc2ccncc2)CC1)c1cc2cc(OC3CCN(c4ccc(C(F)(F)F)cc4)CC3)ccc2o1 [1-105, N-(1-(pyridin-4-ylmethyl)piperidin-4-yl)-5-(1-(4-(trifluoromethyl)phenyl)piperidin-4-yloxy)benzofuran-2-carboxamide, formate salt] | – | < 100 nM
O=C(NC1CCN(S(=O)(=O)c2cccnc2)CC1)c1cc2ccc(OC3CCN(c4ccc(C(F)(F)F)cc4)CC3)cc2o1 [1-106, N-(1-(pyridin-3-ylsulfonyl)piperidin-4-yl)-6-(1-(4-(trifluoromethyl)phenyl)piperidin-4-yloxy)benzofuran-2-carboxamide] | 100 to 500 nM | –
CN(C(=O)c1cc2cc(OC3CCN(c4ccc(C(F)(F)F)cc4)CC3)ccc2o1)C1CCN(Cc2ccc(C#N)cc2)CC1 [1-107, N-(1-(4-cyanobenzyl)piperidin-4-yl)-N-methyl-5-(1-(4-(trifluoromethyl)phenyl)piperidin-4-yloxy)benzofuran-2-carboxamide] | < 100 nM | –
O=C(NC1CCN(S(=O)(=O)c2cccnc2)CC1)c1cc2ccc(OC3CCN(c4ccc(OC(F)(F)F)cc4)CC3)cc2o1 [1-108, N-(1-(pyridin-3-ylsulfonyl)piperidin-4-yl)-6-(1-(4-(trifluoromethoxy)phenyl)piperidin-4-yloxy)benzofuran-2-carboxamide] | 100 to 500 nM | –
CN(C(=O)c1cc2cc(OC3CCN(c4ccc(C(F)(F)F)cc4)CC3)ccc2o1)C1CCN(Cc2cccnc2)CC1 [1-109, N-methyl-N-(1-(pyridin-3-ylmethyl)piperidin-4-yl)-5-(1-(4-(trifluoromethyl)phenyl)piperidin-4-yloxy)benzofuran-2-carboxamide] | < 100 nM | –
CN(C(=O)c1cc2cc(OC3CCN(c4ccc(C(F)(F)F)cc4)CC3)ccc2o1)C1CCN(Cc2cccc(C#N)c2)CC1 [1-110, N-(1-(3-cyanobenzyl)piperidin-4-yl)-N-methyl-5-(1-(4-(trifluoromethyl)phenyl)piperidin-4-yloxy)benzofuran-2-carboxamide] | < 100 nM | –
CN(C(=O)c1cc2cc(OC3CCN(c4ccc(C(F)(F)F)cc4)CC3)ccc2o1)C1CCN(Cc2ccccc2C#N)CC1 [1-111, N-(1-(2-cyanobenzyl)piperidin-4-yl)-N-methyl-5-(1-(4-(trifluoromethyl)phenyl)piperidin-4-yloxy)benzofuran-2-carboxamide] | 100 to 500 nM | –
O=C(NC1CCN(C(=O)c2ccncc2)CC1)c1cc2ccc(OC3CCN(c4ccc(C(F)(F)F)cc4)CC3)cc2o1 [1-112, N-(1-isonicotinoylpiperidin-4-yl)-6-(1-(4-(trifluoromethyl)phenyl)piperidin-4-yloxy)benzofuran-2-carboxamide] | < 100 nM | –
CC(C)(C)OC(=O)N1CCC(NC(=O)c2cc3cc(OC4CCN(Cc5ccc(C#N)cc5)CC4)ccc3o2)CC1 [1-113, tert-butyl 4-(5-(1-(4-cyanobenzyl)piperidin-4-yloxy)benzofuran-2-carboxamido)piperidine-1-carboxylate] | 100 to 500 nM | –
